Experiment in all cases: NCI-60 cell line screen, 48 h
The test system of test [1] is NCI-H460 lung.
The test system of test [2] is MDA-MB-435.
Test [3] deals with CAKI-1 renal.
The subject of test [4] is SF-268 CNS.
Test [5] relates to SK-OV-3 ovarian.
The subject of test [6] is SK-MEL-28 melanoma.
In test [7] the test system is OVCAR-4 ovarian.
The subject of test [8] is SF-539 CNS.
For test [9], the system named is M14 melanoma.
In test [10] the test system is HCT-15 colon.
The subject of test [11] is OVCAR-5 ovarian.
For test [12], the system named is MCF7 breast.

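In this assay, cells in 96-well plates receive the compound at five concentrations for 48 hours. Endpoints are linearly interpolated between the surrounding concentrations. GI50 is the concentration that inhibits growth by half. TGI: concentration producing complete growth inhibition.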

For `NC(CCCCCP(=O)(O)O)C(=O)O` (centres undefined), the TGI in test [1], in test [2], in test [3], in test [4], in [5] and in [6] was more than 100 µM each time. The TGI in test [7], in [8], in [9], in [10] and in test [11] was more than 100 µM each time.

`CSC1=N/C(=C\c2cccs2)C(=O)N1CN1CCOCC1`: the TGI was more than 100 µM in test [2]; more than 100 µM in [4]; more than 100 µM in [5]; more than 100 µM in test [6]; 86.7 µM in test [7]; more than 100 µM in test [9]. Besides, the TGI in test [12], in [10] and in [11] was more than 100 µM each time.

Take `O=C(ON=c1c2ccccc2ccc2ccccc12)c1cc([N+](=O)[O-])cc([N+](=O)[O-])c1`: the TGI in test [1], in test [2], in test [4], in test [5], in test [6] and in test [7] was more than 100 µM throughout. The TGI in [8], in test [9], in [12], in test [10] and in test [11] was more than 100 µM throughout.

As for `CCOC(=O)/C(C(=S)NC)=C(/N)N1CCCC1`, the TGI in test [1], in test [2], in test [3], in test [4], in [5] and in test [6] was more than 100 µM each time. The TGI in test [7], in test [8], in test [9], in [10] and in test [11] was more than 100 µM in each case.

On to `C=CCn1c2ccccc2c2c(C)c3cnccc3c(C)c21`, for which the TGI in [1] is 37.8 µM; in test [3], 6.75 µM; in [4], 88.7 µM; in test [5], 38.5 µM; in test [6], more than 125 µM; in test [7] it was 64.2 µM. The TGI in test [8] is 44.5 µM; in [12], 62.6 µM; in [10], more than 95.5 µM; in test [11], 69.9 µM.

In the case of `C=C1c2nc3ccccc3n2C=C(c2ccc(Cl)cc2)N1c1ccc(OCCN2CCOCC2)cc1`, the TGI in test [1], in [2], in [4], in test [5], in [6] and in [7] was more than 100 µM throughout. The TGI in [8] was more than 100 µM; in test [9], 58.8 µM; in test [12] it was more than 100 µM; in [10], more than 100 µM; in [11], more than 100 µM.

`CC(/C=C/c1ncccc1OCCCCCC(=O)O)=N\NC1=NCCN1`: the TGI in [1], in test [3], in test [4], in test [5], in [6] and in [7] was more than 100 µM each time. The TGI in test [8], in test [9], in test [10] and in [11] was more than 100 µM in each case.

`Clc1cc2nc(C3CCCO3)[nH]c2cc1Cl` (centres undefined): the TGI in test [2], in test [4], in test [5], in test [6], in [7] and in test [8] was more than 100 µM throughout. Besides, the TGI in test [9], in [12], in [10] and in [11] was more than 100 µM throughout.

With `CN(C)C(=S)Nc1nnc(NC23CC4CC(CC(C4)C2)C3)s1`, the TGI in test [1] was 26.8 µM; in test [3] it was 68.8 µM; in test [4], 48.5 µM; in [5] it was 80.1 µM; in test [6], 31.3 µM; in test [7], 32.4 µM. Moreover, the TGI in [9] was 29.7 µM; in test [10], 28.8 µM.

Consider `NC(=O)c1cnc2sc3ccccc3n2c1=O`, for which the TGI in test [1], in [3], in [4], in test [5], in test [6] and in [7] was more than 100 µM throughout. For the same compound, the TGI in test [8], in [9], in test [12], in [10] and in test [11] was more than 100 µM each time.

On to `NNC(N)=Nc1cccc2ccccc12`, for which the TGI in [1], in test [2], in test [4], in test [5], in [6] and in test [7] was more than 100 µM in each case. The TGI in [8], in [9], in [12], in test [10] and in [11] was more than 100 µM throughout.

As to `O=C1/C(=C/c2ccc(O)cc2)NC(=S)N1CN1CCCCC1`, the TGI in test [2], in test [4], in test [5], in [6], in [7] and in [9] was more than 100 µM each time. For the same compound, the TGI in test [12], in [10] and in test [11] was more than 100 µM throughout.

On to `COCCO`, for which the TGI in [1], in test [3], in test [4], in [5], in [6] and in [7] was more than 100 µM throughout. The TGI in test [8], in test [12], in [10] and in [11] was more than 100 µM in each case.

On to `C#CCNC(=O)CCC(N)C(=O)O` (centres undefined), for which the TGI in test [1], in [3], in test [4], in test [5], in [6] and in test [7] was more than 100 µM each time. Further, the TGI in [8], in [12], in test [10] and in test [11] was more than 100 µM throughout.

`COC1/C=C\C=C(/C)C(=O)NC2=CC(=O)C=C(C2=O)C(OC)C(C)CC(OC)C(OC)C(C)/C=C(/C)C1OC(N)=O` (centres undefined): the TGI was 27.2 µM in test [1]; 26.3 µM in test [3]; 26.6 µM in test [4]; 27.8 µM in test [5]; 19.8 µM in [6]; 21.8 µM in test [7]. For the same compound, the TGI was 20.4 µM in [8], 8.37 µM in test [12], 15.4 µM in test [10] and 28.8 µM in test [11].

Consider `CCN(CC)CCN1C(=O)c2cccc3c(-c4ccc5c(c4)ncn5C4CCCCC4)ccc(c23)C1=O`, for which the GI50 in [2] was 1.68 µM; in test [3] it was 1.71 µM; in test [5], 1.97 µM; in test [6] it was 1.63 µM; in test [7], 1.07 µM; in test [8], 1.37 µM. The values for the GI50 in test [12] and in test [11] were 1.74 µM and 1.72 µM, respectively. In addition, the TGI in [2] was 3.22 µM; in test [3], 5.45 µM; in test [5] it was 4.18 µM; in test [6], 3.1 µM; in [7], 4.56 µM; in [8], 2.75 µM. Moreover, the TGI in test [12] worked out at 4.65 µM; in test [11] it was 4.04 µM.

Turning to `Cc1ccc2nc3c(C(=O)NCCN(C)C)cccc3cc2c1`, the TGI in [1] came out at 2.36 µM; in [4], 2.52 µM; in [5] it was 6.66 µM; in test [6] it was 6.67 µM; in test [8], 10.1 µM; in test [12], 11.6 µM. In addition, the TGI came out at 4.91 µM in test [10] and 5.64 µM in [11].

With `Nc1[nH]c(=O)nc2sc3c(c12)CCCC3`, the TGI in [1], in test [4], in [5], in [6], in test [7] and in [8] was more than 100 µM throughout. The TGI in [9], in test [12], in test [10] and in [11] was more than 100 µM each time.

As to `NCCCNCCSSCc1ccccc1CSSCCNCCCN`, the TGI in [1], in test [3], in test [4], in test [5], in test [6] and in test [7] was more than 100 µM in each case. The TGI in test [8], in [9], in [10] and in test [11] was more than 100 µM each time.

With `CN1CCc2c(sc3nc(Nc4ccccc4)n(N)c(=O)c23)C1`, the TGI in test [1] was more than 100 µM; in [3], more than 100 µM; in [4], more than 100 µM; in [8], more than 100 µM; in [9] it was 88 µM; in test [12] it was more than 100 µM. Also, the TGI in test [10] and in test [11] was more than 100 µM throughout.

The values are drawn from PubChem BioAssay (NCI).
